This passage reports IC50 results from patent US10294212B2 (CURADEV PHARMA PRIVATE LTD., priority 2013, dated 2019).

The target of assay [1] is Human indoleamine 2,3-dioxygenase1 (hIDO1) (Homo sapiens (Human), UniProt P14902). In words: In-vitro IDO1 enzyme assay (conversion of L-tryptophan to KYN). Conditions: read-out: IC50 (IDO1) Enz. Format: biochemical. The method in brief:
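Kynurenine formation quantified by HPLC absorbance at 360 nm or LC/MS/MS after TCA quench and 15 min at 65 °C. Reaction: 10 nM N-His hIDO1, 30 μM tryptophan, ascorbate/methylene blue/catalase, pH 6.5 phosphate buffer, 37 °C for 30 min. Inhibition relative to 1% DMSO vehicle, fitted to IC50.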

Assay [2] deals with Human TDO (hTDO)-transfected CHO-K1 cells (Homo sapiens (Human), UniProt P48775). In words: CHO-K1 cell based TDO assay. Conditions: hTDO cellular assay. The gist of the method:
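Kynurenine output was read by LC/MS/MS after TCA precipitation and 15 min at 65° C. Before that, CHO-K1 cells stably carrying human TDO2 were incubated 2 h with compounds (typically 31 μM to 10 nM) and 80 μM L-tryptophan in HBSS. Decrease versus DMSO vehicle gave percent inhibition, then IC50.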

In another assay the target is IDO1 in HeLa cells (Homo sapiens (Human), UniProt P14902). In words: HeLa cell based IDO1 assay (IFNγ-induced, KYN in supernatant). How it is done:
HeLa cells were obtained from ATCC and maintained in DMEM supplemented with sodium bicarbonate (2.1 g/L), HEPES (4.1 g/L), L-glutamine (2 mM), non-essential amino acid (84 mg/L) and fetal bovine serum (10% FBS) and maintained at 95% humidity and 5% CO2 in a 37° C. incubator. Unless otherwise stated, all materials were procured from Sigma. Upon incubation with gamma-interferon (IFNγ ), HeLa cells express IDO1, which catalyzes the formation of N-formyl kynurenine from tryptophan present in growth medium. The assay was performed as follows:
Cells were plated in medium (300 μL) at a density of 0.1 million per well of a 48 well plate and hIDO1 was induced by overnight treatment with IFNγ (50 ng/mL) (Peprotech, USA). The following day, cells were washed to remove IFNγ and were incubated with specific concentrations of test compounds (typically 10 μM to 1 nM, final volume 300 μL) in Hanks Balanced Salt Solution (HBSS) containing 80 μM L-tryptophan. Following incubation, supernatant (150 μL) was transferred to a 96 well plate into which 30%TCA (304) was added and the contents further incubated at 65° C. for 15 min to fully convert N-formylkynurenine to kynurenine. The reaction mixture was then centrifuged to remove sediments and the KYN in the supernatant was estimated by UV-visible absorption spectroscopy at 360 nm using a Waters HPLC system fitted with a C-18 column. (Xiangdong Liu et al. Blood 2010, Vol-117, 3520-30; Sono described above).
Percent inhibition at each concentration of test compounds was determined by estimating the decrease in KYN with reference to the reaction control with 1% DMSO vehicle. Data were analyzed using nonlinear regression to generate IC50 values using Graph Pad Prism® 5.

For orientation: IC50 means the concentration that inhibits the measured activity by half.

Chain of Human TDO (hTDO)-transfected CHO-K1 cells (P48775 whole entry): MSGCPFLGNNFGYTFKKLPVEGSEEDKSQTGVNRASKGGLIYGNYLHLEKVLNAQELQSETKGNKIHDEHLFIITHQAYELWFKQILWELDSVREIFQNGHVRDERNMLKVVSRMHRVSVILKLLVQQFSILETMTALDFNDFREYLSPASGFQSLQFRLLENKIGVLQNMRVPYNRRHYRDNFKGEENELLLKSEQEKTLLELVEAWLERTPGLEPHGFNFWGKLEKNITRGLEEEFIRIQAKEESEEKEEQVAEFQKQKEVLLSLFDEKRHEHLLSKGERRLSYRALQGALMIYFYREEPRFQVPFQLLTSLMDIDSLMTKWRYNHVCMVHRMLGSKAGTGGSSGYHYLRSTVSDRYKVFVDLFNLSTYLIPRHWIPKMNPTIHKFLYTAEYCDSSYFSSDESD
Chain of Human indoleamine 2,3-dioxygenase1 (hIDO1) (P14902 whole entry): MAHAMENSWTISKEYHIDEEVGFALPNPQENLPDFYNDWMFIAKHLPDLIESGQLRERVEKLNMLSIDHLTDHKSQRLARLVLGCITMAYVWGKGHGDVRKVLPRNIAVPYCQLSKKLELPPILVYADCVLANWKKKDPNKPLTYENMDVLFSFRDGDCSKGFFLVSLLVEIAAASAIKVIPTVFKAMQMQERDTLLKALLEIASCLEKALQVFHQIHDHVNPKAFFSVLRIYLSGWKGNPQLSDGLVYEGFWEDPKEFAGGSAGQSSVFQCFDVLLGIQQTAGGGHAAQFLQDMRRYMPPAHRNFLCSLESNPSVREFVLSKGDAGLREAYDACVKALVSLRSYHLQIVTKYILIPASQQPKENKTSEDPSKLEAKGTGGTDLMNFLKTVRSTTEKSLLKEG
Chain of IDO1 in HeLa cells (P14902 whole entry): as above

In the case of `CCc1nccc2c(Nc3ccc(F)c(C(F)(F)F)c3)c(N)oc12` [Compound 74, 7-Ethyl-N^3-(4-fluoro-3-(trifluoromethyl)phenyl)furo[2,3-c]pyridine-2,3-diamine], the IC50 in assay [1] was less than 200 nM; in assay [2], more than 2000 nM; against IDO1 in HeLa cells, less than 200 nM.

In the case of `CCc1nccc2c(Nc3cccc(C(F)(F)F)c3)c(N)oc12` [Compound 76, 7-Ethyl-N^3-(3-(trifluoromethyl)phenyl)furo[2,3-c]pyridine-2,3-diamine], the half-inhibitory concentration (IC50) was less than 200 nM in assay [1], 500 to 2000 nM in assay [2] and less than 200 nM at IDO1 in HeLa cells.

As for `CCCc1nccc2c(Nc3ccc(F)c(Cl)c3)c(N)oc12` [Compound 77, N^3-(3-Chloro-4-fluoro-phenyl)-7-propyl-furo[2,3-c]pyridine-2,3-diamine], the results for the IC50 (in assay [1]; in assay [2]; on IDO1 in HeLa cells) were less than 200 nM, more than 2000 nM and less than 200 nM, respectively.

As to `CCCc1nccc2c(Nc3cccc(C(F)(F)F)c3)c(N)oc12` [Compound 78, 7-Propyl-N^3-(3-(trifluoromethyl)phenyl)furo[2,3-c]pyridine-2,3-diamine], the concentration for half-maximal inhibition (IC50) was less than 200 nM in assay [1], more than 2000 nM in assay [2] and less than 200 nM at IDO1 in HeLa cells.

Take `CCCc1nccc2c(Nc3ccc(F)c(C(F)(F)F)c3)c(N)oc12` [Compound 79, N^3-(4-Fluoro-3-(trifluoromethyl)phenyl)-7-propylfuro[2,3-c]pyridine-2,3-diamine]: the IC50 in assay [1] is less than 200 nM; in assay [2] it was 500 to 2000 nM; against IDO1 in HeLa cells it was less than 200 nM.

As for `Cc1nccc2c(Nc3cccc(C(F)(F)F)c3)c(N)oc12` [Compound 80, 7-Methyl-N^3-(3-(trifluoromethyl)phenyl)furo[2,3-c]pyridine-2,3-diamine], the half-maximal inhibitory concentration (IC50) was less than 200 nM in assay [1], more than 2000 nM in assay [2] and less than 200 nM at IDO1 in HeLa cells.

Take `Nc1oc2c(-c3ccccc3)nccc2c1Nc1ccc(F)c(Cl)c1` [Compound 81, N^3-(3-Chloro-4-fluorophenyl)-7-phenylfuro[2,3-c]pyridine-2,3-diamine]: the IC50 in assay [1] is less than 200 nM; in assay [2], less than 500 nM; against IDO1 in HeLa cells it was less than 200 nM.

On to `Nc1oc2c(-c3ccccc3)nccc2c1Nc1cccc(C(F)(F)F)c1` [Compound 82, 7-Phenyl-N^3-(3-(trifluoromethyl)phenyl)furo[2,3-c]pyridine-2,3-diamine], for which the IC50 is less than 200 nM in assay [1], more than 2000 nM in assay [2] and less than 200 nM against IDO1 in HeLa cells.

For the compound `CC(C)c1nccc2c(Nc3ccc(F)c(Cl)c3)c(N)oc12` [Compound 83, N^3-(3-Chloro-4-fluorophenyl)-7-isopropylfuro[2,3-c]pyridine-2,3-diamine], the results for the IC50 (in assay [1]; in assay [2]; against IDO1 in HeLa cells) were less than 200 nM, 500 to 2000 nM and less than 200 nM, respectively.

With `Nc1oc2cnccc2c1Nc1cccc(CC2CC2)c1` [Compound 84, N^3-(3-(Cyclopropylmethyl)phenyl)furo[2,3-c]pyridine-2,3-diamine], the values for the IC50 (in assay [1]; in assay [2]; on IDO1 in HeLa cells) were more than 1000 nM, more than 2000 nM and 200 to 1000 nM, respectively.

As for `COc1cc2c(Nc3ccc(F)c(Cl)c3)c(N)oc2c(C)n1` [Compound 85, N^3-(3-Chloro-4-fluoro-phenyl)-5-methoxy-7-methyl-furo[2,3-c]pyridine-2,3-diamine], the IC50 was less than 200 nM in assay [1], 500 to 2000 nM in assay [2] and less than 200 nM against IDO1 in HeLa cells.

Regarding `Cc1cc(Cl)cc(Nc2c(N)oc3cnccc23)c1` [Compound 87, N^3-(3-Chloro-5-methylphenyl)furo[2,3-c]pyridine-2,3-diamine], the figures for the IC50 (in assay [1]; in assay [2]; against IDO1 in HeLa cells) were 200 to 1000 nM, 500 to 2000 nM and 200 to 1000 nM, respectively.

On to `COc1cccc(-c2nccc3c(Nc4ccc(F)c(Cl)c4)c(N)oc23)c1` [Compound 90, N^3-(3-Chloro-4-fluorophenyl)-7-(3-methoxyphenyl)furo[2,3-c]pyridine-2,3-diamine], for which the results for the IC50 (in assay [1]; in assay [2]; against IDO1 in HeLa cells) were less than 200 nM, 500 to 2000 nM and less than 200 nM, respectively.

Regarding `C#Cc1cccc(Nc2c(N)oc3c(C)nccc23)c1` [Compound 93, N^3-(3-ethynylphenyl)-7-methylfuro[2,3-c]pyridine-2,3-diamine], the IC50 in assay [1] is 200 to 1000 nM; in assay [2], 500 to 2000 nM; against IDO1 in HeLa cells, less than 200 nM.

Take `Nc1oc2c(-c3cccnc3)nccc2c1Nc1ccc(F)c(Cl)c1` [Compound 94, N^3-(3-chloro-4-fluorophenyl)-7-(pyridin-3-yl)furo[2,3-c]pyridine-2,3-diamine]: the IC50 in assay [1] is less than 200 nM; in assay [2], less than 500 nM; against IDO1 in HeLa cells, less than 200 nM.

As to `C#Cc1cccc(Nc2c(N)oc3c(CC)nccc23)c1` [Compound 96, 7-Ethyl-N^3-(3-ethynylphenyl)furo[2,3-c]pyridine-2,3-diamine], the results for the IC50 (in assay [1]; in assay [2]; against IDO1 in HeLa cells) were less than 200 nM, 500 to 2000 nM and less than 200 nM, respectively.

`COc1ccccc1-c1nccc2c(Nc3ccc(F)c(Cl)c3)c(N)oc12` [Compound 98, N^3-(3-Chloro-4-fluorophenyl)-7-(2-methoxyphenyl)furo[2,3-c]pyridine-2,3-diamine]: the IC50 in assay [1] is less than 200 nM; in assay [2], 500 to 2000 nM; at IDO1 in HeLa cells, less than 200 nM.

In the case of `N#Cc1cccc(Nc2c(N)oc3cnccc23)c1` [Compound 99, 3-((2-Aminofuro[2,3-c]pyridin-3-yl)amino)benzonitrile], the values for the IC50 (in assay [1]; in assay [2]; at IDO1 in HeLa cells) were more than 1000 nM, more than 2000 nM and less than 200 nM, respectively.

`Nc1oc2c(-c3cccc(Cl)c3)nccc2c1Nc1ccc(F)c(Cl)c1` [Compound 100, N^3-(3-Chloro-4-fluorophenyl)-7-(3-chlorophenyl)furo[2,3-c]pyridine-2,3-diamine]: the half-inhibitory concentration (IC50) in assay [1] was less than 200 nM; in assay [2] it was more than 2000 nM; at IDO1 in HeLa cells, less than 200 nM.

For `CCCCOc1cc2c(Nc3ccc(F)c(Cl)c3)c(N)oc2c(-c2ccccc2)n1` [Compound 102, 5-Butoxy-N^3-(3-chloro-4-fluorophenyl)-7-phenylfuro[2,3-c]pyridine-2,3-diamine], the IC50 was more than 1000 nM in assay [1], more than 2000 nM in assay [2] and more than 1000 nM on IDO1 in HeLa cells.

Regarding `N#Cc1nccc2c(Nc3ccc(F)c(Cl)c3)c(N)oc12` [Compound 103, 2-Amino-3-((3-chloro-4-fluorophenyl)amino)furo[2,3-c]pyridine-7-carbonitrile], the IC50 in assay [1] is less than 200 nM; in assay [2], less than 500 nM; against IDO1 in HeLa cells, less than 200 nM.

For the compound `CCOc1cc2c(Nc3ccc(F)c(Cl)c3)c(N)oc2c(-c2ccccc2)n1` [Compound 105, N^3-(3-Chloro-4-fluorophenyl)-5-ethoxy-7-phenylfuro[2,3-c]pyridine-2,3-diamine], the IC50 was 200 to 1000 nM in assay [1], more than 2000 nM in assay [2] and more than 1000 nM against IDO1 in HeLa cells.

As to `Nc1oc2c(C3CCCCC3)nccc2c1Nc1ccc(F)c(Cl)c1` [Compound 108, N^3-(3-Chloro-4-fluorophenyl)-7-cyclohexylfuro[2,3-c]pyridine-2,3-diamine], the IC50 in assay [1] was less than 200 nM; in assay [2] it was 500 to 2000 nM; on IDO1 in HeLa cells, less than 200 nM.

For the compound `CCc1cc2c(Nc3ccc(F)c(Cl)c3)c(N)oc2c(-c2ccccc2)n1` [Compound 109, N^3-(3-chloro-4-fluorophenyl)-5-ethyl-7-phenylfuro[2,3-c]pyridine-2,3-diamine], the IC50 in assay [1] was 200 to 1000 nM; in assay [2] it was more than 2000 nM; on IDO1 in HeLa cells it was 200 to 1000 nM.

`C#Cc1cc(Nc2c(N)oc3c(-c4ccccc4)nccc23)ccc1F` [Compound 110, N^3-(3-Ethynyl-4-fluorophenyl)-7-phenylfuro[2,3-c]pyridine-2,3-diamine]: the IC50 is less than 200 nM in assay [1], 500 to 2000 nM in assay [2] and less than 200 nM against IDO1 in HeLa cells.

Take `C#Cc1cc(Nc2c(N)oc3c(-c4ccncc4)nccc23)ccc1F` [Compound 111, N^3-(3-Ethynyl-4-fluorophenyl)-7-(pyridin-4-yl)furo[2,3-c]pyridine-2,3-diamine]: the IC50 in assay [1] was less than 200 nM; in assay [2], 500 to 2000 nM; against IDO1 in HeLa cells, less than 200 nM.

On to `N#Cc1ccc2c(Nc3cccc(C(F)(F)F)c3)c(N)oc2c1` [Compound 113, 2-Amino-3-((3-(trifluoromethyl)phenyl)amino)benzofuran-6-carbonitrile], for which the IC50 is less than 200 nM in assay [1], 500 to 2000 nM in assay [2] and less than 200 nM against IDO1 in HeLa cells.
